Values of other authors as cited in article PMC9063988 (JACS Au, 2022).

System: uptake of ETP transporter 21 into HeLa Kyoto cells

O[C@H](CS)[C@@H](O)CS [DTE, 1,4-Dithioerythritol]
inhibition of thiol-mediated uptake: fail to inhibit
